Measurements as given in patent publication US11739074B2, “Ras inhibitors” (Revolution Medicines, Inc., priority 2019, dated 2023).
Like-named read-outs stand apart in the source and are kept apart here.

Tests used:
[1] = ester bond, EDCI/HOBt/DIPEA, 16.0 h
[2] = from CCn1c(-c2cc(N3CCN(C(=O)OCc4ccccc4)CC3)cnc2[C@H](C)OC)c(CC(C)(C)CO)c2cc(-c3csc(C[C@H](NC(=O)OC(C)(C)C)C(=O)N4CCC[C@@H](C(=O)O)N4)n3)ccc21; ester bond; 18-membered ring; EDCI/HOBt/DIEA; MeCN; 10.3 mM; 25.0 °C

Question: Which ring closure, yield of all isomers ([1]; from CC(C)[Si](Oc1cc(C[C@H](NC(=O)OC(C)(C)C)C(=O)N2CCC[C@@H](C(=O)O)N2)cc(-c2ccc3[nH]c(I)c(CC(C)(C)CO)c3c2)c1)(C(C)C)C(C)C, DCM, 22.8 mM, 25.0 °C) does the source give for CC(C)[Si](Oc1cc2cc(c1)-c1ccc3[nH]c(I)c(c3c1)CC(C)(C)COC(=O)[C@@H]1CCCN(N1)C(=O)[C@@H](NC(=O)OC(C)(C)C)C2)(C(C)C)C(C)C here?
Answer: Its ring closure, yield of all isomers is 50%.

Question: Which ring closure, yield of all isomers ([1]; from CC(C)(CO)Cc1c(I)[nH]c2ccc(-c3cccc(C[C@H](NC(=O)OC(C)(C)C)C(=O)N4CCC[C@@H](C(=O)O)N4)c3)cc12, DCM, 12.8 mM, 0.0 °C) does the source give for CC1(C)COC(=O)[C@@H]2CCCN(N2)C(=O)[C@@H](NC(=O)OC(C)(C)C)Cc2cccc(c2)-c2ccc3[nH]c(I)c(c3c2)C1 here?
Answer: The ring closure, yield of all isomers was 79.8%.

Question: Which results are given for CCn1c(-c2cc(N3CCN(C(=O)OCc4ccccc4)CC3)cnc2[C@H](C)OC)c2c3cc(ccc31)-c1csc(n1)C[C@H](NC(=O)OC(C)(C)C)C(=O)N1CCC[C@H](N1)C(=O)OCC(C)(C)C2?
Answer: ring closure, isolated yield [2]: 54.9%; ring closure, yield of all isomers ([1]; from CCn1c(-c2cc(N3CCN(C(=O)OCc4ccccc4)CC3)cnc2[C@H](C)OC)c(CC(C)(C)CO)c2cc(-c3csc(C[C@H](NC(=O)OC(C)(C)C)C(=O)N4CCC[C@@H](C(=O)O)N4)n3)ccc21, MeCN, 10.34 mM, 25.0 °C): 54.9%

Question: Which ring closure, yield of all isomers ([1]; from CCn1c(-c2cccnc2[C@H](C)OC)c(CC(C)(C)CO)c2cc(-c3csc(C[C@H](NC(=O)OC(C)(C)C)C(=O)N4CCC[C@@H](C(=O)O)N4)n3)ccc21, DCM, 12.65 mM, 25.0 °C) does the source give for CCn1c(-c2cccnc2[C@H](C)OC)c2c3cc(ccc31)-c1csc(n1)C[C@H](NC(=O)OC(C)(C)C)C(=O)N1CCC[C@H](N1)C(=O)OCC(C)(C)C2 here?
Answer: The ring closure, yield of all isomers was 81.1%.
